experiment: Compound was evaluated for inhibition against Phospholipase A2 of Croatalus adamanteus

IC50, > 1 mM:
CC(=O)ON(C=CC(=O)c1ccc(F)cc1)Cc1ccccc1 [1-(4-fluorophenyl)-3-benzyl-3-acetyloxyamino-propenone], CON(/C=C\C(=O)c1ccc(F)cc1)Cc1ccccc1 [(Z)-3-(Benzyl-methoxy-amino)-1-(4-fluoro-phenyl)-propenone], O=C(/C=C\N(O)C1CCCCC1)c1ccc(F)cc1

— BindingDB's records for doi:10.1016/S0960-894X(00)80622-8 (1992)
